Measurements taken from patent US20230098111A1, “COMPOSITIONS AND METHODS TO TREAT NEUROLOGICAL DISEASES” (University of Southern California, priority 2020, published 2023).

Assays:
SOD1 A4V iMNs = test: Survival of SOD1 ALS iMNs; format: cell-based, human; details: neurotrophic factor withdrawal; DMSO or 3 uM apilimod
Procedure: (A) Survival of control or SOD1 A4V iMNs with DMSO or 3 uM apilimod. (B) Survival of TDP-43 G298S iMNs with DMSO or 3 uM apilimod. (C) Survival of MAPT V337M or isogenic control iNs.
PIKFYVE inhibition rescues the survival of TARDBP ALS, SOD1 ALS, and MAPT FTD patient neurons. Since the accumulation of misfolded proteins is a common disease mechanism in all forms of ALS, FTD, and Alzheimer's disease, it was reasoned that inducing secretory autophagy might rescue neurodegeneration in diverse patients. iMNs were generated from ALS patients harboring mutations in TARDBP or SOD1 as well as NGN2-induced neurons (iNs) from MAPT^V337M FTD. […] 2 additional isogenic pairs of iPSC lines from MAPT FTD patients, 2 additional TARDBP ALS iPSC lines, and 2 additional SOD1 ALS iPSC lines were all obtained.

C9ORF72 DPRs = test: DPR levels in C9ORF72 iNs; format: cell-based, human
Source text: 2000 approved drugs and 1800 target-annotated tool compounds were screened on C9ORF72 FTD iNs.

SMILES: Cc1cccc(/C=N/Nc2cc(N3CCOCC3)nc(OCCc3ccccn3)n2)c1 [apilimod]
- survival of SOD1 ALS iMNs (SOD1 A4V iMNs): rescued the survival
- DPR levels in C9ORF72 iNs (C9ORF72 DPRs): lowered DPR levels
